# Where “and” joins values, the source holds several entries; their conditions need not be identical. Equal values may be shown once.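 Test compounds were applied to cells in 96-well plates for 48 hours at 5 doses. Here, GI50 denotes the concentration required for 50% inhibition of growth. TGI marks complete inhibition of growth.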
# What was measured:
# Experiment in all cases: NCI-60 cell line screen, 48 h
# 786-0 renal = test system: 786-0 renal
# A498 renal = test system: A498 renal
# A549 NSCLC = test system: A549 NSCLC
# CAKI-1 renal = test system: CAKI-1 renal
# CCRF-CEM leukemia = test system: CCRF-CEM leukemia
# COLO 205 colon = test system: COLO 205 colon
# DLD-1 colon = test system: DLD-1 colon
# DMS 114 small cell lung = test system: DMS 114 small cell lung
# DMS 273 small cell lung = test system: DMS 273 small cell lung
# EKVX NSCLC = test system: EKVX NSCLC
# HCC-2998 colon = test system: HCC-2998 colon
# HCT-116 colon = test system: HCT-116 colon
# HCT-15 colon = test system: HCT-15 colon
# HL-60(TB) leukemia = test system: HL-60(TB) leukemia
# HOP-62 NSCLC = test system: HOP-62 NSCLC
# HOP-92 NSCLC = test system: HOP-92 NSCLC
# HT29 colon = test system: HT29 colon
# IGROV1 ovarian = test system: IGROV1 ovarian
# K-562 leukemia = test system: K-562 leukemia
# KM12 colon = test system: KM12 colon
# LOX IMVI melanoma = test system: LOX IMVI melanoma
# LXFL 529 NSCLC = test system: LXFL 529 NSCLC
# M14 melanoma = test system: M14 melanoma
# M19-MEL melanoma = test system: M19-MEL melanoma
# MALME-3M melanoma = test system: MALME-3M melanoma
# MOLT-4 leukemia = test system: MOLT-4 leukemia
# NCI-H23 lung = test system: NCI-H23 lung
# NCI-H460 lung = test system: NCI-H460 lung
# NCI-H522 lung = test system: NCI-H522 lung
# OVCAR-3 ovarian = test system: OVCAR-3 ovarian
# OVCAR-4 ovarian = test system: OVCAR-4 ovarian
# OVCAR-8 ovarian = test system: OVCAR-8 ovarian
# RPMI-8226 leukemia = test system: RPMI-8226 leukemia
# RXF 393 renal = test system: RXF 393 renal
# RXF-631 renal = test system: RXF-631 renal
# SF-268 CNS = test system: SF-268 CNS
# SF-295 CNS = test system: SF-295 CNS
# SF-539 CNS = test system: SF-539 CNS
# SK-MEL-2 melanoma = test system: SK-MEL-2 melanoma
# SK-MEL-28 melanoma = test system: SK-MEL-28 melanoma
# SK-MEL-5 melanoma = test system: SK-MEL-5 melanoma
# SK-OV-3 ovarian = test system: SK-OV-3 ovarian
# SN12C renal = test system: SN12C renal
# SNB-19 CNS = test system: SNB-19 CNS
# SNB-75 CNS = test system: SNB-75 CNS
# SNB-78 CNS = test system: SNB-78 CNS
# SW-620 colon = test system: SW-620 colon
# TK-10 renal = test system: TK-10 renal
# U251 CNS = test system: U251 CNS
# UACC-257 melanoma = test system: UACC-257 melanoma
# UACC-62 melanoma = test system: UACC-62 melanoma
# UO-31 renal = test system: UO-31 renal
# XF 498 CNS = test system: XF 498 CNS
# ACHN renal = test system: ACHN renal
# HOP-18 NSCLC = test system: HOP-18 NSCLC
# KM20L2 colon = test system: KM20L2 colon
# NCI-H226 lung = test system: NCI-H226 lung
# OVCAR-5 ovarian = test system: OVCAR-5 ovarian
# SR leukemia = test system: SR leukemia
smiles,measurement,setting,value
CC1(C)CC(=O)C=C(NC(=O)c2ccccc2)C1,TGI,786-0 renal,> 100000 nM
same,TGI,A498 renal,> 100000 nM
same,TGI,A549 NSCLC,> 100000 nM
same,TGI,CAKI-1 renal,> 100000 nM
same,TGI,CCRF-CEM leukemia,> 100000 nM
same,TGI,COLO 205 colon,> 100000 nM
same,TGI,DLD-1 colon,> 100000 nM
same,TGI,DMS 114 small cell lung,> 100000 nM
same,TGI,DMS 273 small cell lung,> 100000 nM
same,TGI,EKVX NSCLC,> 100000 nM
same,TGI,HCC-2998 colon,> 100000 nM
same,TGI,HCT-116 colon,> 100000 nM
same,TGI,HCT-15 colon,> 100000 nM
same,TGI,HL-60(TB) leukemia,> 100000 nM
same,TGI,HOP-62 NSCLC,> 100000 nM
same,TGI,HOP-92 NSCLC,> 100000 nM
same,TGI,HT29 colon,> 100000 nM
same,TGI,IGROV1 ovarian,> 100000 nM
same,TGI,K-562 leukemia,> 100000 nM
same,TGI,KM12 colon,> 100000 nM
same,TGI,LOX IMVI melanoma,> 100000 nM
same,TGI,LXFL 529 NSCLC,> 100000 nM
same,TGI,M14 melanoma,> 100000 nM
same,TGI,M19-MEL melanoma,> 100000 nM
same,TGI,MALME-3M melanoma,> 100000 nM
same,TGI,MOLT-4 leukemia,> 100000 nM
same,TGI,NCI-H23 lung,> 100000 nM
same,TGI,NCI-H460 lung,> 100000 nM
same,TGI,NCI-H522 lung,> 100000 nM
same,TGI,OVCAR-3 ovarian,> 100000 nM
same,TGI,OVCAR-4 ovarian,> 100000 nM
same,TGI,OVCAR-8 ovarian,> 100000 nM
same,TGI,RPMI-8226 leukemia,> 100000 nM
same,TGI,RXF 393 renal,> 100000 nM
same,TGI,RXF-631 renal,> 100000 nM
same,TGI,SF-268 CNS,> 100000 nM
same,TGI,SF-295 CNS,> 100000 nM
same,TGI,SF-539 CNS,> 100000 nM
same,TGI,SK-MEL-2 melanoma,> 100000 nM
same,TGI,SK-MEL-28 melanoma,> 100000 nM
same,TGI,SK-MEL-5 melanoma,> 100000 nM
same,TGI,SK-OV-3 ovarian,> 100000 nM
same,TGI,SN12C renal,> 100000 nM
same,TGI,SNB-19 CNS,> 100000 nM
same,TGI,SNB-75 CNS,> 100000 nM
same,TGI,SNB-78 CNS,> 100000 nM
same,TGI,SW-620 colon,> 100000 nM
same,TGI,TK-10 renal,> 100000 nM
same,TGI,U251 CNS,> 100000 nM
same,TGI,UACC-257 melanoma,> 100000 nM
same,TGI,UACC-62 melanoma,> 100000 nM
same,TGI,UO-31 renal,> 100000 nM
same,TGI,XF 498 CNS,> 100000 nM
COc1cccc2c1C(=O)c1c(O)c3c(c(O)c1C2=O)C[C@@](O)(C(=O)CO)CC3OC1CC(NCCCCC(OC(C)=O)OC(C)=O)C(O)C(C)O1 (some centres not stated),TGI,786-0 renal,> 1000 nM
same,TGI,A498 renal,21.1 nM
same,TGI,ACHN renal,5.7 nM
same,TGI,CAKI-1 renal,8.12 nM
same,GI50,CCRF-CEM leukemia,0.538 nM
same,TGI,CCRF-CEM leukemia,11.8 nM
same,GI50,DLD-1 colon,2.47 nM
same,TGI,DLD-1 colon,245 nM
same,GI50,DMS 114 small cell lung,0.83 nM
same,TGI,DMS 114 small cell lung,2.91 nM
same,GI50,EKVX NSCLC,3.68 nM
same,TGI,EKVX NSCLC,14.3 nM
same,TGI,HCC-2998 colon,4.95 nM and 5.77 nM
same,TGI,HCT-15 colon,> 1000 nM
same,TGI,HL-60(TB) leukemia,4.28 nM
same,GI50,HOP-18 NSCLC,7.8 nM
same,TGI,HOP-18 NSCLC,9.26 nM and 80.7 nM
same,GI50,HOP-62 NSCLC,2.48 nM
same,GI50,HOP-92 NSCLC,2.86 nM
same,TGI,HOP-92 NSCLC,6.82 nM and 7.9 nM
same,GI50,HT29 colon,1.03 nM
same,TGI,HT29 colon,12.5 nM
same,GI50,IGROV1 ovarian,3.55 nM
same,TGI,IGROV1 ovarian,> 1000 nM
same,GI50,K-562 leukemia,0.522 nM
same,TGI,K-562 leukemia,4.66 nM
same,TGI,KM12 colon,7.74 nM and 22 nM
same,GI50,KM20L2 colon,0.858 nM
same,TGI,KM20L2 colon,8.75 nM
same,GI50,LOX IMVI melanoma,0.488 nM
same,TGI,LOX IMVI melanoma,8.29 nM and 30.2 nM
same,GI50,LXFL 529 NSCLC,2.63 nM
same,GI50,M14 melanoma,1.1 nM
same,TGI,M14 melanoma,4.58 nM and 5.49 nM
same,GI50,M19-MEL melanoma,1.56 nM
same,TGI,M19-MEL melanoma,3.34 nM
same,GI50,MOLT-4 leukemia,0.378 nM
same,TGI,MOLT-4 leukemia,9.09 nM and 2.36 nM
same,TGI,NCI-H226 lung,5.68 nM
same,GI50,NCI-H23 lung,0.808 nM
same,TGI,NCI-H23 lung,2.37 nM
same,TGI,NCI-H460 lung,319 nM
same,GI50,NCI-H522 lung,1.25 nM
same,TGI,NCI-H522 lung,3.44 nM and 5.13 nM
same,TGI,OVCAR-4 ovarian,4.49 nM and 9.85 nM
same,TGI,OVCAR-5 ovarian,> 1000 nM
same,GI50,OVCAR-8 ovarian,1.79 nM
same,TGI,OVCAR-8 ovarian,61.4 nM
same,GI50,RPMI-8226 leukemia,0.528 nM
same,TGI,RPMI-8226 leukemia,3.13 nM
same,GI50,RXF 393 renal,2.69 nM
same,TGI,RXF 393 renal,3.56 nM and 6.42 nM
same,TGI,RXF-631 renal,8.03 nM
same,GI50,SF-295 CNS,2.27 nM
same,TGI,SF-295 CNS,33.5 nM
same,GI50,SF-539 CNS,2.96 nM
same,TGI,SF-539 CNS,4.21 nM and 37.4 nM
same,GI50,SK-MEL-2 melanoma,1.71 nM
same,TGI,SK-MEL-2 melanoma,4.35 nM and 3.31 nM
same,GI50,SK-MEL-5 melanoma,1.52 nM
same,TGI,SK-MEL-5 melanoma,3.41 nM
same,GI50,SK-OV-3 ovarian,5.67 nM
same,TGI,SK-OV-3 ovarian,> 1000 nM
same,GI50,SN12C renal,0.935 nM
same,TGI,SN12C renal,> 1000 nM
same,TGI,SNB-19 CNS,> 1000 nM
same,GI50,SNB-75 CNS,0.927 nM
same,TGI,SNB-75 CNS,4.32 nM and 3.44 nM
same,TGI,SNB-78 CNS,8.04 nM
same,TGI,SR leukemia,2.7 nM
same,GI50,SW-620 colon,1.75 nM
same,TGI,SW-620 colon,> 1000 nM
same,TGI,TK-10 renal,> 1000 nM
same,GI50,U251 CNS,2.66 nM
same,GI50,UACC-257 melanoma,2.86 nM
same,TGI,UACC-257 melanoma,7.98 nM
same,GI50,UACC-62 melanoma,0.655 nM
same,TGI,UACC-62 melanoma,3.74 nM and 2.28 nM
same,TGI,UO-31 renal,4.3 nM
